# Target: T1, Nucleoprotein (Human respiratory syncytial virus A (strain A2), UniProt P03418)
# T1 sequence (P03418 whole entry): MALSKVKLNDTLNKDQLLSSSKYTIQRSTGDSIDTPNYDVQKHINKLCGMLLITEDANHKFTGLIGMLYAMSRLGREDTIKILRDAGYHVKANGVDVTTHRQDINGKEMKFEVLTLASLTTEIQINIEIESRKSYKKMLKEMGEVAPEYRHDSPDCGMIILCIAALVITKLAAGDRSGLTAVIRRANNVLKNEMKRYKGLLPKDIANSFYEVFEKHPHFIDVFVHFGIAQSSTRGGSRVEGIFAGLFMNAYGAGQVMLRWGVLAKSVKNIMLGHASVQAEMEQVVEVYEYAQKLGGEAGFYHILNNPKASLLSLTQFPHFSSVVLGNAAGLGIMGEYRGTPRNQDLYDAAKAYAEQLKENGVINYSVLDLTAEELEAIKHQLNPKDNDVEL
# Assay: Not found
# Source text: Not found
structure (smiles),measurement,value
"O=C(N[C@H]1N=C(c2ccccc2)c2cccc(F)c2NC1=O)c1c(-c2c(F)cccc2F)nn2c1OCCC2 [US20230270751, Example 196]",EC50,25 nM
"CN(C(=O)OC(C)(C)C)C1COc2c(C(=O)N[C@H]3N=C(c4ccccc4)c4cccc(F)c4NC3=O)c(-c3ccccc3F)nn2C1 (stereo not given in full) [US20230270751, Example 107]",EC50,93 nM
"O=C(N[C@H]1N=C(c2ccccc2)c2cccc(F)c2NC1=O)c1c(-c2ccccc2F)nn2c1OCC(CN1CCOCC1)C2 (stereo not given in full) [US20230270751, Example 173]",EC50,91 nM
"O=C(N[C@H]1N=C(c2ccccc2)c2cccc(F)c2NC1=O)c1c(-c2ccccc2F)nn2c1OCC(CN1CCCC1)C2 (stereo not given in full) [US20230270751, Example 182]",EC50,78 nM
"O=C(N[C@H]1N=C(c2ccccc2)c2cccc(F)c2NC1=O)c1c(-c2ccccc2F)nn2c1OCC(C1CC1)C2 (stereo not given in full) [US20230270751, Example 13]",EC50,28 nM

# From BindingDB's records for patent US20230270751 (Reviral, 2023)
